Patent US7807703B2, “Substituted aryl ketones” (Bayer CropScience AG, priority 2002, dated 2010)
Where two headings read alike, the source gives them in different places.

What was measured:
weeds [1] = test: Pre-emergence test (Example A), herbicidal activity; assay type: in vivo; details: soil sprayed 24 hours after sowing, rated after three weeks
Procedure: (§1) • Solvent: 5 parts by weight of acetone • Emulsifier: 1 part by weight of alkylaryl polyglycol ether
(§2) To produce a suitable preparation of active compound, 1 part by weight of active compound is mixed with the stated amount of solvent, the stated amount of emulsifier is added and the concentrate is diluted with water to the desired concentration.
Seeds of the test plants are sown in normal soil. After 24 hours, the soil is sprayed with the preparation of active compound such that the particular amount of active compound desired is applied per unit area. The concentration of active compound in the spray liquor is chosen such that the particular amount of active compound desired is applied in 1000 liters of water per hectare.
After three weeks, the degree of damage to the plants is rated in % damage in comparison to the development of the untreated control. The figures denote: • 0%=no effect (like untreated control) • 100%=total destruction

weeds [2] = test: Post-emergence test (Example B), herbicidal activity; assay type: in vivo; details: test plants of 5-15 cm sprayed, rated after three weeks
Procedure: as §1, §2
Test plants of a height of 5-15 cm are sprayed with the preparation of active compound such that the particular amounts of active compound desired are applied per unit area. The concentration of the spray liquor is chosen such that the particular amounts of active compound desired are applied in 1000 l of water/ha.
After three weeks, the degree of damage to the plants is rated in % damage in comparison to the development of the untreated control.
The figures denote: • 0%=no effect (like untreated control) • 100%=total destruction

[3] = log P determination by reversed-phase HPLC (EEC Directive 79/831 Annex V.A8; acidic or neutral mobile phase); assay type: physicochemical; details: for chromatographic logP: reversed-phase C18 HPLC column
Outline: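 Reversed-phase C18 HPLC per EEC Directive 79/831 Annex V.A8 at 43° C. Linear gradient of 10% to 90% acetonitrile, run against 0.1% aqueous phosphoric acid for the acidic range (a) or 0.01 molar aqueous phosphate buffer for the neutral range (b).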

[4] = HPLC reversed-phase C18, 43° C., acidic range: 0.1% aqueous phosphoric acid, acetonitrile gradient (marked a))
[5] = HPLC, reversed-phase C 18, 43° C., mobile phase range not marked, read-out: log P

SMILES | activity against weeds (degree of damage) (weeds [1]) | activity against weeds (degree of damage) (weeds [2]) | chromatographic logP ([3]; HPLC reversed-phase C18, 43° C., acidic range: 0.1% aqueous phosphoric acid, acetonitrile gradient (marked a)), read-out: logP) | logP [3, 4] | chromatographic logP [3, 5]
CCn1ncc(C(=O)c2ccc(Cl)c(OCCNS(=O)(=O)CC)c2Cl)c1O [Example 2, 4-[2,4-dichloro-3-(N-ethylsulphonylaminoethoxy)benzoyl]-1-ethyl-5-hydroxypyrazole] | strong activity | strong activity | 1.86 | – | –
CCn1ncc(C(=O)c2ccc(Cl)c(OCCNS(=O)(=O)c3ccc(C)cc3)c2Cl)c1O [Example 3] | – | strong activity | – | (I-2) logP = 2.74^a) | –
CCS(=O)(=O)NCCOc1c(Cl)ccc(C(=O)C2C(=O)CCCC2=O)c1Cl [Example 4] | strong activity | strong activity | – | logP = 2.36^a) | –
CS(=O)(=O)NCCOc1c(Cl)ccc(C(=O)C2C(=O)CCCC2=O)c1Cl [Example 5] | strong activity | strong activity | – | logP = 2.16^a) | –
CCn1ncc(C(=O)c2ccc(Cl)c(OCCNS(C)(=O)=O)c2Cl)c1O [Example 6] | strong activity | – | – | logP = 1.65^a) | –
CCOC(=O)c1ccc(Cl)c(OCCNC(=O)OC(C)(C)C)c1Cl [ethyl 2,4-dichloro-3-[2-[(t-butoxycarbonyl)amino]ethoxy]benzoate] | – | – | – | – | 3.79
CCOC(=O)c1ccc(Cl)c(OCCN)c1Cl [ethyl 3-(2-aminoethoxy)-2,4-dichlorobenzoate] | – | – | – | – | 1.08
